Results: publication PMC11459923, “Identification of novel and potent inhibitors of SARS-CoV-2 main protease from DNA-encoded chemical libraries” (Antimicrobial Agents and Chemotherapy, 2024)
Like-named read-outs stand apart in the source and are kept apart here.

Assays:
[1] = biological target: T1, SARS-CoV-2 M^pro (Severe acute respiratory syndrome coronavirus 2, UniProt P0DTD1); experiment: Mpro protease activity assay (FRET, used for Table 1); format: biochemical
[2] = mouse; for Metabolic stability: microsomes
[3] = in vitro; details: human, microsomes
[4] = human; for Metabolic stability: microsomes
[5] = biological target: avi-tagged SARS-CoV-2 M^pro (Severe acute respiratory syndrome coronavirus 2, UniProt P0DTD1); format: binding
[6] = biological target: T2, human cathepsin S (Homo sapiens, UniProt P25774); experiment: Counter assay screening, SensoLyte 440 cathepsin S kit; format: biochemical; details: for Inhibitory activity against human Cathepsin S: concentrations 50 to 0.00085 µM; for IC50: tested up to 50 µM
T2 construct: purchased Anaspec, Inc. SensoLyte 440 cathepsin S Assay Kit (catalogue number not given)

[7] = in vitro; details: mouse, microsomes
[8] = in vitro; details: human, Caco-2
[9] = tested on: SARS-CoV-2; experiment: microbe, parasite or virus in culture; format: cell-based
[10] = tested on: M^pro; details: read-out: IC50 M^pro; cited from earlier work
[11] = biological target: T1, SARS-CoV-2 M^pro; experiment: In vitro FRET enzymatic assay (screening at 1 µM and SAR IC50); format: biochemical; details: read-out: IC50 ± SEM
[12] = 75 nM M^pro, 10 µM substrate, 11-point series from 50 µM

T2 sequence (P25774 115-331): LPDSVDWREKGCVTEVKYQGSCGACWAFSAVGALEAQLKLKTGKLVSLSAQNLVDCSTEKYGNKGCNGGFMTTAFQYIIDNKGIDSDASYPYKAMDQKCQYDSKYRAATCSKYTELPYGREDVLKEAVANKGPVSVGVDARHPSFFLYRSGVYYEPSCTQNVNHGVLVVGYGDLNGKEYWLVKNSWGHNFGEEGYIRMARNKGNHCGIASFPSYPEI

Row | SMILES | IC50 [1, 12] [nM] | IC50 M^pro ([1]; off-DNA synthesized DECL hits) | Enrichment score M^pro [5] | Enrichment score M^pro +GC376 [5] | Inhibitory activity against human Cathepsin S [6] | IC50 [6] [µM] | also measured
1 | CCCC[C@@H](NC(=O)c1ccnc(C#N)c1)C(=O)N[C@H](CC(=O)N[C@H](Cc1ccncc1)C(=O)NC)Cc1c[nH]c2ccccc12 [SLL12] | 53 | low nanomolar range | 488,354 | 0 | no inhibitory activity | > 50 | In vitro half time [2]: 8 min; Metabolic stability [2]: low metabolic stability; microsomal CLint [3]: 131 µL/min/mg; In vitro half time [4]: 11 min; Metabolic stability [4]: low metabolic stability; microsomal CLint [7]: 170 µL/min/mg
2 | N#Cc1cc(C(=O)N[C@H](CC2CCC2)C(=O)N[C@H](CC(=O)N[C@H](Cc2ccncc2)C(=O)O)Cc2c[nH]c3ccccc23)ccn1 [MP1] |  |  |  |  |  |  | Papp A→B [8]: 5.4 ×10⁻⁶ cm/s; Papp B→A [8]: 2.5 ×10⁻⁶ cm/s; Protective effect on infected Calu-3 (CPE) [9]: no protective effect; EC50 ([9]; Severe acute respiratory syndrome coronavirus 2, Calu-3, 48 h, read-out: EC50 inhibition of CPE development): 2300 nM
3 | CC(C)C[C@H](NC(=O)OCc1ccccc1)C(=O)N[C@@H](CC1CCNC1=O)C(O)S(=O)(=O)O (stereo partly drawn) [GC376] |  |  |  |  |  |  | IC50 [10]: 150 nM
4 | CNC(=O)[C@@H](CSCNC(C)=O)NC(=O)c1ccc2cncc(-c3ccc(Oc4ccccc4)nc3)c2n1 [SLL08] | > 50000 |  | 11,444 | 676 | no inhibitory activity | > 50 | 
5 | CCCC[C@@H](NC(=O)c1ccnc(C#N)c1)C(=O)N[C@H](CC(=O)N[C@H](Cc1ccncc1)C(=O)O)Cc1c[nH]c2ccccc12 [MP9] |  |  |  |  |  |  | IC50 [11]: 139 ± 49 nM
6 | CCCCC(NC(=O)CC(Cc1c[nH]c2ccccc12)NC(=O)C(Cc1ccccc1)NC(=O)c1ccnc(C#N)c1)C(=O)NC (stereo not drawn) [SLL07] | 140 | low nanomolar range | 135,654 | 0 | no inhibitory activity | > 50 | 
7 | CNC(=O)C(Cc1ccncc1)NC(=O)CC(Cc1c[nH]c2ccccc12)NC(=O)C(CC1CCC1)NC(=O)c1ccnc(C#N)c1 (stereo not drawn) [SLL11] | 30 | low nanomolar range | 515,485 | 206,982 | no inhibitory activity | > 50 | IC50 ([1]; off-DNA synthesized DECL hits): ≤ 30 nM; In vitro half time [2]: 9 min; Metabolic stability [2]: low metabolic stability; microsomal CLint [3]: 139 µL/min/mg; In vitro half time [4]: 10 min; Metabolic stability [4]: low metabolic stability; microsomal CLint [7]: 154 µL/min/mg
